Source: US10174070B2, “6-substituted estradiol derivatives and methods of use” (Endece LLC, priority 2005, dated 2019)

Columns and labels:
Format in all cases: cell-based
lung (A549) = assay: Cell viability (ATP luminescence) IC50 determination, A549; conditions: Homo sapiens, A549 cells, 72 hours incubation, vs DMSO vehicle control
Protocol: (§1) In yet another aspect of the instant invention, the IC50 or the half maximal inhibitory concentration of the candidate compounds were determined to assess drug potency and potential dosing regimens for in vivo use. One of ordinary skill in the art is readily able to ascertain such information using commonly known methodologies. As it has been well described in the art, IC50 represents and measures how much of a particular substance/molecule is needed to inhibit some biological process by 50%. In the instant case, the IC50 of the candidate compounds were determined as the concentration that led to a response of 50% compared to the vehicle control cells.
(§2) The cell lines listed are maintained at approximately 5% CO2, 37° C., 95% relative humidity in the media appropriate for that cell line. The cells are sub-cultured every two to three days and plated in clear bottom 96-well plates at a density of 1×10^4 cells/well and incubated at ca. 5% CO2, 37° C. overnight prior to initiation of the assay. To begin cell viability assays, the media in the cell plate (100 μL) is replaced with fresh media (100 μL). The test articles are serially diluted […] in fresh media in duplicate and added to the cells (100 μL) at final sample concentrations of 0.46, 1.37, 4.12, 12.35, 37.04, 111.1, 333.3 and 1000 μM (≤1% DMSO) in a total volume of 200 μL. Wells containing no cells and wells containing cells lysed with 0.1% Triton-X are used for baseline controls. Tamoxifen is used as a known control for each assay and DMSO only will be run as vehicle control. The samples are incubated at ca. 37° C. in humidified 5% CO2 atmosphere for 72 hours. The plate is monitored once a day during the incubation period, paying special attention to the level of confluence. If the cells approach confluence prior to the end of the 72 hour incubation period, the experiment is terminated and cell viability measured as described below.
(§3) Cell viability is determined using a commercially available kit to determine ATP levels by luminescence. Briefly, the cell plate has the media removed and replaced with 100 μL of fresh media, and the buffer and lyophilized substrate are equilibrated to room temperature. The buffer is used to reconstitute the substrate just prior to addition to the wells of the cell plate (100 μL per well). The plate is placed into the Infinite M200 plate reader, allowed to shake for 10 minutes followed by a 10 minute wait period. The plate is then read using an integration time of 0.5 sec with no attenuation.
(§4) The mean baseline controls (wells with Triton X-100 or no cells) are subtracted from the total luminescence to give the net luminescence for that well. This total is compared to the control of DMSO only. An IC50 is calculated as the concentration that led to a response of 50% compared to the vehicle control cells.

ovary (Ovcar-3) = assay: Cell viability (ATP luminescence) IC50 determination, Ovcar-3; conditions: Homo sapiens, Ovcar-3 cells, 72 hours incubation, vs DMSO vehicle control
Protocol: as §1, §2, §3, §4

Pancreas (Capan-1) = assay: Cell viability (ATP luminescence) IC50 determination, Capan-1; conditions: Homo sapiens, Capan-1 cells, 72 hours incubation, vs DMSO vehicle control
Protocol: as §1, §2, §3, §4

[1] = system: cells lines derived from breast, lung, colon, prostate, endometrial and ovarian cancers; assay: In vitro studies of tumor cell growth inhibition in cancer cell lines; conditions: CYP19 positive (MDA-MB-213 and SK-OV-3) vs CYP19 negative (MCF-7 and NIH:OVCAR-3), where it is reduced

Row | Structure (SMILES) | IC50 (lung (A549)) | IC50 (ovary (Ovcar-3)) | IC50 (Pancreas (Capan-1)) | in vitro studies of tumor cell growth, by CYP19 status of the cell line [1]
1 | COC[C@H]1C[C@@H]2[C@H](CC[C@]3(C)C(O)CC[C@@H]23)c2ccc(O)cc21 (stereo partly drawn) [Compound 3, (6S,8R,9S,13S,14S)-6-(methoxymethyl)-13-methyl-7,8,9,11,12,13,14,15,16,17-decahydro-6H-cyclopenta[a]phenanthrene-3,17-diol] | 84 µM | 94 µM | 168 µM | 
2 | COC[C@@H]1C[C@@H]2[C@H](CC[C@]3(C)C(O)CC[C@@H]23)c2ccc(O)cc21 (stereo partly drawn) [Compound 4, (6R,8R,9S,13S,14S)-6-(methoxymethyl)-13-methyl-7,8,9,11,12,13,14,15,16,17-decahydro-6H-cyclopenta[a]phenanthrene-3,17-diol] | 70 µM | 100 µM | 32 µM | 
3 | C[C@]12CC[C@@H]3c4ccc(O)cc4[C@H](CO)C[C@H]3[C@@H]1CCC2O (stereo partly drawn) [Compound 8, (6R,8R,9S,13S,14S)-6-(hydroxymethyl)-13-methyl-7,8,9,11,12,13,14,15,16,17-decahydro-6H-cyclopenta[a]phenanthrene-3,17-diol] | 184 µM | 221 µM | 212 µM | 
4 | COC[C@@H]1C[C@@H]2[C@H](CC[C@]3(C)C(O)CC[C@@H]23)[C@@]2(C)CCC(O)CC12 (stereo partly drawn) [Compound 9, (6R,8R,9S,10R,13S,14S)-6-(methoxymethyl)-10,13-dimethylhexadecahydro-1H-cyclopenta[a]phenanthrene-3,17-diol] | > 1000 µM | > 1000 µM | > 1000 µM | 
5 | C[C@]12CC[C@@H]3c4ccc(O)cc4[C@H](CON)C[C@H]3[C@@H]1CCC2O (stereo partly drawn) [Compound 10, (6R,8R,9S,13S,14S)-6-((aminooxy)methyl)-13-methyl-7,8,9,11,12,13,14,15,16,17-decahydro-6H-cyclopenta[a]phenanthrene-3,17-diol] | 170 µM | 317 µM | 277 µM | 
6 | CO[C@@H]1C[C@@H]2[C@H](CC[C@]3(C)C(O)CC[C@@H]23)c2ccc(O)cc21 (stereo partly drawn) [Compound 18, (6R,8R,9S,13S,14S)-6-methoxy-13-methyl-7,8,9,11,12,13,14,15,16,17-decahydro-6H-cyclopenta[a]phenanthrene-3,17-diol] | 139 µM | 207 µM | 192 µM | 
7 | COCC[C@@H]1C[C@@H]2[C@H](CC[C@]3(C)C(O)CC[C@@H]23)c2ccc(O)cc21 (stereo partly drawn) [Compound 19, (6S,8R,9S,13S,14S)-6-(2-methoxyethyl)-13-methyl-7,8,9,11,12,13,14,15,16,17-decahydro-6H-cyclopenta[a]phenanthrene-3,17-diol] | 80 µM | 96 µM | 32 µM | 
8 | COCCCC[C@@H]1C[C@@H]2[C@H](CC[C@]3(C)C(O)CC[C@@H]23)c2ccc(O)cc21 (stereo partly drawn) [Compound 20, (6R,8R,9S,13S,14S)-6-(4-methoxybutyl)-13-methyl-7,8,9,11,12,13,14,15,16,17-decahydro-6H-cyclopenta[a]phenanthrene-3,17-diol] | 34 µM | 60 µM | 16 µM | 
9 | COCCCCCC[C@@H]1C[C@@H]2[C@H](CC[C@]3(C)C(O)CC[C@@H]23)c2ccc(O)cc21 (stereo partly drawn) [Compound 21, (6R,8R,9S,13S,14S)-6-(6-methoxyhexyl)-13-methyl-7,8,9,11,12,13,14,15,16,17-decahydro-6H-cyclopenta[a]phenanthrene-3,17-diol] | 17 µM | 24 µM | 23 µM | 
10 | CCC(CCCCC[C@@H]1C[C@@H]2[C@H](CC[C@]3(C)C(O)CC[C@@H]23)c2ccc(O)cc21)OC (stereo partly drawn) [Compound 22, (6R,8R,9S,13S,14S)-6-(6-methoxyoctyl)-13-methyl-7,8,9,11,12,13,14,15,16,17-decahydro-6H-cyclopenta[a]phenanthrene-3,17-diol] | 13 µM | 20 µM | 22 µM | 
11 | CCCCCCCCCCCCCCCCCC(=O)OC1CC[C@H]2[C@@H]3C[C@@H](COC)c4cc(O)ccc4[C@H]3CC[C@]12C (stereo partly drawn) [Compound 23, (6R,8R,9S,13S,14S)-3-hydroxy-6-(methoxymethyl)-13-methyl-7,8,9,11,12,13,14,15,16,17-decahydro-6H-cyclopenta[a]phenanthren-17-yl stearate] | > 1000 µM | > 1000 µM | 775 µM | 
12 | COC[C@@H]1C[C@@H]2[C@H](CC[C@]3(C)C(=O)CC[C@@H]23)[C@@]2(C)C=CC(=O)C=C12 [Compound 24, (6R,8R,9S,10R,13S,14S)-6-(methoxymethyl)-10,13-dimethyl-7,8,9,10,11,12,13,14,15,16-decahydro-3H-cyclopenta[a]phenanthrene-3,17(6H)-dione] |  |  |  | highest in cell lines that are CYP19 positive
13 | CCCOCCCC[C@@H]1C[C@@H]2[C@H](CC[C@]3(C)C(O)CC[C@@H]23)c2ccc(O)cc21 (stereo partly drawn) [Compound 30, (6R,8R,9S,13S,14S)-13-methyl-6-(4-propoxybutyl)-7,8,9,11,12,13,14,15,16,17-decahydro-6H-cyclopenta[a]phenanthrene-3,17-diol] | 5 µM | 29 µM | 10 µM | 
14 | CCOCCCCC[C@@H]1C[C@@H]2[C@H](CC[C@]3(C)C(O)CC[C@@H]23)c2ccc(O)cc21 (stereo partly drawn) [Compound 31, (6R,8R,9S,13S,14S)-13-methyl-6-(5-ethoxypentyl)-7,8,9,11,12,13,14,15,16,17-decahydro-6H-cyclopenta[a]phenanthrene-3,17-diol] | 7 µM | 28 µM | 15 µM | 
